Measurements from US20240239759A1, “ISOXAZOLINE COMPOSITIONS AND THEIR USE AS ANTIPARASITICS” (Intervet Inc., priority 2007, published 2024).
Read-outs that look alike come from different tables or passages of the source.

Test system: cat fleas (Ctenocephalides felis)
Test: Efficacy of various isoxazolines against cat fleas on mice (Example 3)
Format: in vivo
Details: for pest or weed control at 20 mg/kg: Ctenocephalides felis, po, read-out: Flea inhibition relative to negative control
Experimental: In this experiment, mice were randomly assigned to a treatment group or a negative control (untreated) group. Each group consisted of three mice. The mice in the treatment groups were orally administered 20 mg/kg bodyweight of various isoxazolines dissolved in 7% DMF-premix and 93% purified water (aqua ad injectabilia). The application volume of these treatments was 0.01 mL/g bodyweight. One hour after treatment, each mouse was sedated and generally infested (whole body) with 30 vital, adult fleas (C. felis). To achieve this, the sedated mice were placed into an infestation-jar, and the fleas were placed directly onto the fur. After approximately 30 minutes of feeding, fleas were recovered from the mice. Assessments for inhibition and mortality were conducted 1 hr, 24 hr, and 48 hr after each infestation. The efficacy was calculated as the percentage of inhibited fleas in the treatment groups relative to the negative control group.

[1] = 1 h, mice, oral 20 mg/kg, infested 1 hr after treatment, 1 hr after infestation
[2] = 24 h, mice, oral 20 mg/kg, infested 1 hr after treatment, 24 hr after infestation
[3] = 48 h, mice, oral 20 mg/kg, infested 1 hr after treatment, 48 hr after infestation
[4] = mice, oral 20 mg/kg, infested 1 hr after treatment, 1 hr after infestation

Row | Compound | pest or weed control at 20 mg/kg [1] | pest or weed control at 20 mg/kg [2] | pest or weed control at 20 mg/kg [3] | pest or weed control at 20 mg/kg (1 h) | pest or weed control at 20 mg/kg (24 h) | pest or weed control at 20 mg/kg (48 h) | Flea inhibition relative to negative control [4]
1 | COCN(C(=O)c1ccc(C2=NOC(c3cc(Cl)cc(Cl)c3)(C(F)(F)F)C2)cc1C)c1ncc(Cl)cn1 (centres unmarked) [Compound 5-28] | 1.1% | 70% | 71.1% |  |  |  | 
2 | CC(=O)N(C(=O)c1ccc(C2=NOC(c3cc(Cl)cc(Cl)c3)(C(F)(F)F)C2)cc1C)N(C)c1ccccc1 (centres unmarked) [Compound 5-57] | 0% | 86.7% | 87.7% |  |  |  | 
3 | Cc1cc(C2=NOC(c3cc(Cl)cc(Cl)c3)(C(F)(F)F)C2)ccc1C(=O)N(C(=O)C(C)C)c1ncc(C#N)cn1 (centres unmarked) [Compound 5-18] | 0% | 54.4% | 54.4% |  |  |  | 
4 | Cc1cc(C2=NOC(c3cc(Cl)cc(Cl)c3)(C(F)(F)F)C2)ccc1C(=O)Nc1cncnc1 (centres unmarked) [Compound 5-55] | 0% | 92.2% | 93.3% |  |  |  | 
5 | Cc1cc(C2=NOC(c3cc(Cl)c(F)c(Cl)c3)(C(F)(F)F)C2)ccc1C(=O)NCC(=O)NCC(F)(F)F (centres unmarked) [Compound 5-40] |  |  |  | 0% | 85.6% | 85.6% | 
6 | CCO/N=C\NC(=O)c1ccc(C2=NOC(c3cc(Cl)cc(Cl)c3)(C(F)(F)F)C2)cc1C (centres unmarked) [Compound 5-50] |  |  |  |  |  |  | (27.7%)
7 | CON=CNC(=O)c1ccc(C2=NOC(c3cc(Cl)c(Cl)c(Cl)c3)(C(F)(F)F)C2)cc1C (centres unmarked) [Compound 5-33] | 0% | 100% | 100% |  |  |  | 
8 | CCO/C(N)=N\C(=O)c1ccc(C2=NOC(c3cc(Cl)cc(Cl)c3)(C(F)(F)Cl)C2)cc1C (centres unmarked) [Compound 5-38] | 2.3% | 96.7% | 97.7% |  |  |  | 
9 | COCN(C(=O)OC)C(=O)c1ccc(C2=NOC(c3cc(Cl)cc(Cl)c3)(C(F)(F)F)C2)cc1I (centres unmarked) [Compound 5-29] | 0% | 68.9% | 68.9% |  |  |  | 
10 | COC(=O)N(Cc1ccccn1)C(=O)c1ccc(C2=NOC(c3cc(Cl)cc(Cl)c3)(C(F)(F)F)C2)cc1C (centres unmarked) [Compound 5-19] | 0% | 90% | 94.4% |  |  |  | 
11 | CC(=O)N(C(=O)c1ccc(C2=NOC(c3cc(Cl)cc(Cl)c3)(C(F)(F)F)C2)cc1C)c1ncc(C#N)cn1 (centres unmarked) [Compound 5-30] | 2.2% | 67.8% | 68.9% |  |  |  | 
12 | CC(NC(=O)c1ccc(C2=NOC(c3cc(Cl)c(Cl)c(Cl)c3)(C(F)(F)F)C2)cc1)C(=O)NCC(F)(F)F (centres unmarked) [Compound 5-35] | 0% | 100% | 100% |  |  |  | 
13 | COC(=O)N(COC(C)C)C(=O)c1ccc(C2=NOC(c3cc(Cl)cc(Cl)c3)(C(F)(F)F)C2)cc1C (centres unmarked) [Compound 5-27] | 12.2% | 72.2% | 84.4% |  |  |  | 
14 | CCNC(=O)CNC(=O)c1ccc(C2=NOC(c3cc(Cl)cc(Cl)c3)(C(F)(F)F)C2)cc1C (centres unmarked) [Compound 14-1] | 97.8% | 100% | 100% |  |  |  | 
15 | COC(CNC(=O)c1ccc(C2=NOC(c3cc(Cl)cc(Cl)c3)(C(F)(F)Cl)C2)cc1C)OC (centres unmarked) [Compound 5-53] | 0% | 82.2% | 91.1% |  |  |  | 
16 | COC(=O)N(C)C(=O)c1ccc(C2=NOC(c3cc(Cl)cc(Cl)c3)(C(F)(F)F)C2)cc1C (centres unmarked) [Compound 5-16] | 0% | 46.7% | 54.4% |  |  |  | 

Row | Compound | pest or weed control at 20 mg/kg [1] | pest or weed control at 20 mg/kg [2] | pest or weed control at 20 mg/kg [3] | pest or weed control at 20 mg/kg (1 h) | pest or weed control at 20 mg/kg (24 h) | pest or weed control at 20 mg/kg (48 h) | Flea inhibition relative to negative control [4]
17 | COC(=O)N(COCC(F)(F)F)C(=O)c1ccc(C2=NOC(c3cc(Cl)cc(Cl)c3)(C(F)(F)F)C2)cc1C (centres unmarked) [Compound 5-25] | 0% | 75.6% | 84.4% |  |  |  | 
18 | Cc1cc(C2=NOC(c3cc(Cl)cc(Cl)c3)(C(F)(F)F)C2)ccc1C(=O)N(C(=O)C1CC1)c1ncc(Cl)cn1 (centres unmarked) [Compound 5-24] | 0% | 84.4% | 86.7% |  |  |  | 
19 | COC(=O)N(C(=O)c1ccc(C2=NOC(c3cc(Cl)cc(Cl)c3)(C(F)(F)F)C2)cc1C)c1ncc(C#N)cn1 (centres unmarked) [Compound 5-31] | 0% | 65.6% | 65.6% |  |  |  | 
20 | Cc1cc(C2=NOC(c3cc(Cl)cc(Cl)c3)(C(F)(F)F)C2)ccc1C(=S)NCc1cscn1 (centres unmarked) [Compound X-1] | 4.3% | 100% | 100% |  |  |  | 
21 | CC(=O)N(C(=O)c1ccc(C2=NOC(c3cc(Cl)cc(Cl)c3)(C(F)(F)F)C2)cc1C)c1cnccn1 (centres unmarked) [Compound 5-32] | 0% | 70% | 71.1% |  |  |  | 
22 | CO/N=C\NC(=O)c1ccc(C2=NO[C@@](c3cc(Cl)cc(Cl)c3)(C(F)(F)F)C2)cc1C [Compound 5-36] | 45.7% | 99% | 99% |  |  |  | 
23 | O=C(CNC(=O)c1ccc(C2=NOC(c3cc(C(F)(F)F)cc(C(F)(F)F)c3)(C(F)(F)F)C2)cc1)NCC(F)(F)F (centres unmarked) [Compound 5-34] | 2.3% | 96.6% | 96.6% |  |  |  | 
24 | Cc1cc(C2=NOC(c3cc(Cl)cc(Cl)c3)(C(F)(F)F)C2)ccc1C(=O)NC1CCCO1 (centres unmarked) [Compound 5-64] | 50% | 97.8% | 97.8% |  |  |  | 
25 | COC(=O)N(C)C(=O)c1ccc(C2=NOC(c3cc(Cl)cc(Cl)c3)(C(F)(F)F)C2)cc1I (centres unmarked) [Compound 5-20] | 4.4% | 96.7% | 97.8% |  |  |  | 
26 | Cc1cc(C2=NO[C@@](c3cc(Cl)cc(Cl)c3)(C(F)(F)F)C2)ccc1C(=O)NCC(=O)NCC(F)(F)F (stereo in doubt) [Compound 17-1] | 100% | 100% | 100% |  |  |  | 
27 | COCN(C(=O)OC)C(=O)c1ccc(C2=NOC(c3cc(Cl)cc(Cl)c3)(C(F)(F)F)C2)cc1Br (centres unmarked) [Compound 5-26] | 0% | 77.8% | 77.8% |  |  |  | 
28 | Cc1cc(C2=NOC(c3cc(Cl)cc(Cl)c3)(C(F)(F)F)C2)ccc1C(=O)NC(C)C(=O)NCC(F)(F)F (centres unmarked) [Compound 5-54] |  |  |  |  |  |  | 5-47 (0%), 5-54 (0%),
29 | CCc1cc(C2=NOC(c3cc(Cl)cc(Cl)c3)(C(F)(F)F)C2)ccc1C(=O)NCC(F)(F)F (centres unmarked) [Compound 5-15] | 0% | 31.1% | 36.7% |  |  |  | 
30 | C#CCNC(=O)CNC(=O)c1ccc(C2=NOC(c3cc(Cl)cc(Cl)c3)(C(F)(F)F)C2)cc1C (centres unmarked) [Compound 5-67] | 80% | 100% | 100% |  |  |  | 
31 | Cc1cc(C2=NOC(c3cc(Cl)cc(Cl)c3)(C(F)(F)F)C2)ccc1C(=O)N(C(=O)C(C)C)c1ncc(Cl)cn1 (centres unmarked) [Compound 5-23] | 0% | 87.8% | 94.4% |  |  |  | 
